# PMC5883364 (Malaria Journal, 2018)
# Key:
# [1] = test system: HepG2-A16 (human hepatoma) cells; conditions: for LD50 HepG2: human, 48 h; for Selectivity index LD50 (HepG2)/IC50 (3D7): HepG2 vs 3D7; for Selectivity index LD50 (HepG2)/IC50 (Dd2): HepG2 vs Dd2
# Procedure: (§1) Cytotoxicity was assessed on the mammalian cell lines HepG2-A16 (human hepatoma) and V79 (Chinese hamster lung), using a MTT based assay, as previously described. […] V79 and HepG2 cell lines were incubated for 24 and 48 h, respectively (media changed at 24 h intervals). Absorbance was read at 570 nm on a multi-mode microplate reader (Triad, Dynex Technologies), to produce a log dose-dependence curve. The LD50 value for each compound was estimated by non-linear interpolation of the dose-dependence curve (GraphPad Software).
# [2] = test system: V79 (Chinese hamster lung) cells; conditions: for LD50 V79: Chinese hamster, 24 h; for Selectivity index LD50 (V79)/IC50 (3D7): V79 vs 3D7; for Selectivity index LD50 (V79)/IC50 (Dd2): V79 vs Dd2
# Procedure: as §1
# [3] = Solubility remark in the IC50 table; assay type: physicochemical; set-up: key: ?: Low solubility; conditions: symbol printed in the IC50 cells
# Excerpt: Supplement 12936_2018_2281_MOESM1_ESM.docx, table 1: Table 1: Antiplasmodial activity in vitro (IC50) against resistant and sensitive P. falciparum strains. | column: P. falciparum IC50 ± SD (nM)
# [4] = test system: P. falciparum Dd2 (chloroquine-resistant, mefloquine-resistant); experiment: SYBR Green I assay, IC50, strain Dd2; assay type: cell-based, Plasmodium falciparum; conditions: for IC50: Plasmodium falciparum, DD2, strain Dd2, read-out: P. falciparum IC50 ± SD, Dd2; for Resistance Index RIa = IC50 (Dd2)/IC50 (3D7): Dd2 vs 3D7
# Procedure: (§2) Staging and parasitaemia were determined by light microscopy of Giemsa-stained thin blood smears. Anti-malarial activity was determined using the SYBR Green I assay, as previously described.
# [5] = test system: P. falciparum 3D7 (chloroquine and mefloquine sensitive); experiment: SYBR Green I assay, IC50, strain 3D7; assay type: cell-based, Plasmodium falciparum; conditions: Plasmodium falciparum, 3D7, strain 3D7; read-out: P. falciparum IC50 ± SD, 3D7
# Procedure: as §2
solubility remark (no IC50 obtained) [3],SMILES,LD50 HepG2 [1] [mM],LD50 V79 [2] [mM],IC50 [4] [nM],IC50 [5] [nM],Selectivity index LD50 (HepG2)/IC50 (3D7) [1],Selectivity index LD50 (HepG2)/IC50 (Dd2) [1],Selectivity index LD50 (V79)/IC50 (3D7) [2],Selectivity index LD50 (V79)/IC50 (Dd2) [2],Resistance Index RIa = IC50 (Dd2)/IC50 (3D7) [4]
?,NCCCCNC1CCC2(CC1)OOC1(O2)C2CC3CC(C2)CC1C3 (stereo not drawn) [MIS16],1.0,> 1,–,–,–,–,–,–,–
–,NCC1CCC2(CC1)OOC1(O2)C2CC3CC(C2)CC1C3 (stereo not drawn) [LC95],1.0,> 1,56.3 ± 1,29.6 ± 5.18,3441.7,1784.7,3441.7,1784.7,–
?,NCCCCNC(=O)C1CCC2(CC1)OOC1(O2)C2CC3CC(C2)CC1C3 (stereo not drawn) [MIS15],1.0,> 1,–,–,–,–,–,–,–
–,c1ccc(N2N=NNC23OOC2(O3)C3CC4CC(C3)CC2C4)cc1 (stereo not drawn) [LC28],1.0,> 1,1130 ± 188,3660 ± 1490,273.3,887.3,273.3,887.3,0.3
–,O=C(Nc1nnn[nH]1)C1CCC2(CC1)OOC1(O2)C2CC3CC(C2)CC1C3 (stereo not drawn) [LC142],1.0,> 1,107 ± 45.4,117 ± 33.2,8568.9,9354.5,8568.9,9354.5,0.9
–,"O=S1(=O)N=C(Cl)c2ccccc21 [LC60, 3-chloro-1,2-benzisothiazole-1,1-dioxide]",1.0,> 1,> 10000,> 10000,–,–,–,–,–
